# Laboratory results published in US9815846B2 (Merck Sharp & Dohme Corp., priority 2014, dated 2017).
# Target: human TrkA receptor (Homo sapiens (Human), UniProt P04629)
# Experiment: DiscoverX PathHunter TrkA functional assay (NGF-stimulated U2OS cells)
# Type: cell-based
# Details: U2OS cells expressing human TrkA-PK, Shc1-EA and p75NTR; compound 1 h, then NGF at ~80% of maximal response for 3 h; luminescence
# human TrkA receptor, sequence (P04629 33-796): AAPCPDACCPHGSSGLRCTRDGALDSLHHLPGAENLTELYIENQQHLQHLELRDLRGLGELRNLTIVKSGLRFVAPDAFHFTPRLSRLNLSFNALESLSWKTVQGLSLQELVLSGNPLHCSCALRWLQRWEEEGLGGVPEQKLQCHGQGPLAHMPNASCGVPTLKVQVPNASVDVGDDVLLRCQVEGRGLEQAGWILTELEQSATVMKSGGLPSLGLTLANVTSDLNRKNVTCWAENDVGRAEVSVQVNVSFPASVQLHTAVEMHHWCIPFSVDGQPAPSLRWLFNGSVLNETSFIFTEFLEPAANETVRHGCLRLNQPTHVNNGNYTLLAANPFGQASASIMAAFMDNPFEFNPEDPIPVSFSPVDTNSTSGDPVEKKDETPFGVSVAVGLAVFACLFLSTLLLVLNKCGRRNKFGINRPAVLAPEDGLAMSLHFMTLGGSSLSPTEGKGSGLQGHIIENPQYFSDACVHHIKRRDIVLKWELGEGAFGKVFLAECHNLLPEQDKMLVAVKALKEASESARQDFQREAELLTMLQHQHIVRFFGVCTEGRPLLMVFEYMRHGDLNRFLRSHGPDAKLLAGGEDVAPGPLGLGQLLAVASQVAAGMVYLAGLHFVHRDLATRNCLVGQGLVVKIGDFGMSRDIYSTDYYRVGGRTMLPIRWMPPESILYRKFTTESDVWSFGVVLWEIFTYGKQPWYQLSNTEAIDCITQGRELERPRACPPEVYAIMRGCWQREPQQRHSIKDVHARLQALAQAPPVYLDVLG
row,SMILES,IC50 [nM]
1,"Cn1ccc(-c2cc(C(=O)Nc3ncc(CC(N)=O)nc3-c3ccccc3)c(F)cc2C(F)(F)F)n1 [Example 120, N-(5-(2-amino-2-oxoethyl)-3-phenylpyrazin-2-yl)-2-fluoro-5-(1-methyl-1H-pyrazol-3-yl)-4-(trifluoromethyl)benzamide]",8.7
2,"Cn1ccc(-c2cc(C(=O)Nc3cc4c(nc3-c3ccccc3)CNC(=O)C4)ccc2C(F)(F)F)n1 [Example 142, 3-(1-Methyl-1H-pyrazol-3-yl)-N-(6-oxo-2-phenyl-5,6,7,8-tetrahydro-1,7-naphthyridin-3-yl)-4-(trifluoromethyl)benzamide]",4.7
3,"Cn1ccc(-c2cc(C(=O)Nc3cnc(OCC(N)=O)nc3-c3ccccc3)c(F)cc2C(F)(F)F)n1 [Example 216, N-(2-(2-Amino-2-oxoethoxy)-4-phenylpyrimidin-5-yl)-2-fluoro-5-(1-methyl-1H-pyrazol-3-yl)-4-(trifluoromethyl)benzamide]",1.8
4,"CNC(=O)c1ccc(-c2cnc(-c3ccccc3)c(NC(=O)c3cc(-c4cc[nH]n4)c(C(F)(F)F)cc3F)c2)cc1 [Example 166, 2-fluoro-N-(5-(4-(methylcarbamoyl)phenyl)-2-phenylpyridin-3-yl)-5-(1H-pyrazol-3-yl)-4-(trifluoromethyl)benzamide]",12
5,"Cn1ccc(-c2cc(C(=O)Nc3ncc(CNC(=O)CO)cc3-c3ccccc3)c(F)cc2C(F)(F)F)n1 [Example 69, 2-fluoro-N-(5-((2-hydroxyacetamido)methyl)-3-phenylpyridin-2-yl)-5-(1-methyl-1H-pyrazol-3-yl)-4-(trifluoromethyl)benzamide]",18
6,"Cn1ccc(-c2cc(C(=O)Nc3ccc(C4CNC(=O)N4)nc3-c3ccccc3)c(F)cc2C(F)(F)F)n1 (centres unmarked) [Example 215, 2-Fluoro-5-(1-methyl-1H-pyrazol-3-yl)-N-(6-(2-oxoimidazolidin-4-yl)-2-phenylpyridin-3-yl)-4-(trifluoromethyl)benzamide]",0.36
7,"Cn1ccc(-c2cc(C(=O)Nc3cnc(N)nc3-c3ccccc3)c(F)cc2C(F)(F)F)n1 [Example 212, N-(2-amino-4-phenylpyrimidin-5-yl)-2-fluoro-5-(1-methyl-1H-pyrazol-3-yl)-4-(trifluoromethyl)benzamide]",2.8
8,"Cn1ccc(-c2cc(C(=O)Nc3cc4c(nc3-c3ccccc3)CNC4)c(F)cc2C(F)(F)F)n1 [Example 188, 2-Fluoro-5-(1-methyl-1H-pyrazol-3-yl)-N-(2-phenyl-6,7-dihydro-5H-pyrrolo[3,4-b]pyridin-3-yl)-4-(trifluoromethyl)benzamide]",2.9
9,"CN1CC(NC(=O)c2cnc(-c3ccccc3)c(NC(=O)c3cc(-c4cc[nH]n4)c(C(F)(F)F)cc3F)c2)C1 [Example 90, 5-(2-fluoro-5-(1H-pyrazol-3-yl)-4-(trifluoromethyl)benzamido)-N-(1-methylazetidin-3-yl)-6-phenylnicotinamide]",80
10,"Cc1ncc(NC(=O)c2ccc(C(F)(F)F)c(-n3nccn3)c2)c(-c2ccccc2)n1 [Example 16, N-(2-methyl-4-phenylpyrimidin-5-yl)-3-(2H-1,2,3-triazol-2-yl)-4-(trifluoromethyl)benzamide]",66
11,"O=C(Nc1cc(OCc2ccncc2)cnc1-c1ccccc1)c1cc(-c2ncccn2)c(C(F)(F)F)cc1F [Example 176, 2-fluoro-N-(2-phenyl-5-(pyridin-4-ylmethoxy)pyridin-3-yl)-5-(pyrimidin-2-yl)-4-(trifluoromethyl)benzamide]",6.3
12,"O=C(Nc1cnc(C(=O)N2CCOCC2)nc1-c1ccccc1)c1ccc(C(F)(F)F)c(-c2cc[nH]n2)c1 [Example 88, N-(2-(morpholine-4-carbonyl)-4-phenylpyrimidin-5-yl)-3-(1H-pyrazol-3-yl)-4-(trifluoromethyl)benzamide]",1200
13,"CNC(=O)c1cnc(-c2ccccc2)c(NC(=O)c2cc(-c3ccn(C)n3)c(C(F)(F)F)cc2F)c1 [Example 83, 5-(2-fluoro-5-(1-methyl-1H-pyrazol-3-yl)-4-(trifluoromethyl)benzamido)-N-methyl-6-phenylnicotinamide]",1.1
14,"Cn1ccc(-c2cc(C(=O)Nc3cnc(CC(=O)N4CCOCC4)nc3-c3ccccc3)c(F)cc2C(F)(F)F)n1 [Example 111, 2-fluoro-5-(1-methyl-1H-pyrazol-3-yl)-N-(2-(2-morpholino-2-oxoethyl)-4-phenylpyrimidin-5-yl)-4-(trifluoromethyl)benzamide]",9.1
15,"Cc1ncc(NC(=O)c2ccc(C)c(F)c2F)c(-c2ccccc2)n1 [Example 8, 2,3-difluoro-4-methyl-N-(2-methyl-4-phenylpyrimidin-5-yl)benzamide]",4300
16,"Cn1ccc(-c2cc(C(=O)Nc3cnc(CN4CCCC4=O)nc3-c3ccccc3)c(F)cc2C(F)(F)F)n1 [Example 219, 2-fluoro-5-(1-methyl-1H-pyrazol-3-yl)-N-(2-((2-oxopyrrolidin-1-yl)methyl)-4-phenylpyrimidin-5-yl)-4-(trifluoromethyl)benzamide]",0.32

row,SMILES,IC50 [nM]
1,"Cc1cccc(-c2nc(C)ncc2NC(=O)c2ccc(C(F)(F)F)c(-c3ccn(C)n3)c2)c1 [Example 32, N-[2-methyl-4-(3-methylphenyl)pyrimidin-5-yl]-3-(1-methyl-1H-pyrazol-3-yl)-4-(trifluoromethyl)benzamide]",8.3
2,"Cn1ccc(-c2cc(C(=O)Nc3cc(C(N)=O)c(N)nc3-c3ccccc3)ccc2C(F)(F)F)n1 [Example 87, 2-amino-5-(3-(1-methyl-1H-pyrazol-3-yl)-4-(trifluoromethyl)benzamido)-6-phenylnicotinamide]",8.5
3,"Cc1cnn(-c2ccncc2NC(=O)c2ccc(C(F)(F)F)c(-c3ccn(C)n3)c2)c1 [Example 19, 3-(1-methyl-1H-pyrazol-3-yl)-N-[4-(4-methyl-1H-pyrazol-1-yl)pyridin-3-yl]-4-(trifluoromethyl)benzamide]",25
4,"Cn1ccc(-c2cc(C(=O)Nc3cnc(CNC(=O)C(C)(N)CO)nc3-c3ccccc3)c(F)cc2C(F)(F)F)n1 (single isomer, unassigned) [Example 66, (S or R)-N-(2-((2-amino-3-hydroxy-2-methylpropanamido)methyl)-4-phenylpyrimidin-5-yl)-2-fluoro-5-(1-methyl-1H-pyrazol-3-yl)-4-(trifluoromethyl)benzamide]",1.2
5,"Cn1ccc(-c2cc(C(=O)Nc3cnc(CCC(N)=O)nc3-c3ccccc3)c(F)cc2C(F)(F)F)n1 [Example 128, N-(2-(3-Amino-3-oxopropyl)-4-phenylpyrimidin-5-yl)-2-fluoro-5-(1-methyl-1H-pyrazol-3-yl)-4-(trifluoromethyl)benzamide]",0.54
6,"Cc1ncc(NC(=O)c2ccc(C(F)(F)F)c(-c3cc[nH]n3)c2)c(-c2ccccc2)n1 [Example 21, N-(2-methyl-4-phenylpyrimidin-5-yl)-3-(1H-pyrazol-3-yl)-4-(trifluoromethyl)benzamide]",35
7,"Cn1ccc(-c2cc(C(=O)Nc3cc(CC(N)=O)cnc3-c3ccccc3)c(F)cc2C(F)(F)F)n1 [Example 202, N-(5-(2-Amino-2-oxoethyl)-2-phenylpyridin-3-yl)-2-fluoro-5-(1-methyl-1H-pyrazol-3-yl)-4-(trifluoromethyl)benzamide]",3.7
8,"NC(=O)c1ccc(-c2cnc(-c3ccccc3)c(NC(=O)c3cc(-c4cc[nH]n4)c(C(F)(F)F)cc3F)c2)cc1 [Example 165, N-(5-(4-carbamoylphenyl)-2-phenylpyridin-3-yl)-2-fluoro-5-(1H-pyrazol-3-yl)-4-(trifluoromethyl)benzamide]",2.3
9,"Cn1ccc(-c2cc(C(=O)Nc3ccc(C(O)CO)nc3-c3ccccc3)c(F)cc2C(F)(F)F)n1 (single isomer, unassigned) [Example 192, (R or S)—N-(6-(1,2-Dihydroxyethyl)-2-phenylpyridin-3-yl)-2-fluoro-5-(1-methyl-1H-pyrazol-3-yl)-4-(trifluoromethyl)benzamide]",2.3
10,"C[C@@H](O)C(=O)NCc1ncc(NC(=O)c2cc(-c3ccn(C)n3)c(C(F)(F)F)cc2F)c(-c2ccccc2)n1 [Example 60, (R)-2-fluoro-N-(2-((2-hydroxypropanamido)methyl)-4-phenylpyrimidin-5-yl)-5-(1-methyl-1H-pyrazol-3-yl)-4-(trifluoromethyl)benzamide]",1.1
11,"Cc1ncc(NC(=O)c2cc(-c3ccn(C)n3)c(C(F)(F)F)cc2F)c(-c2ccccc2CCN)n1 [Example 134, N-(4-(2-(2-aminoethyl)phenyl)-2-methylpyrimidin-5-yl)-2-fluoro-5-(1-methyl-1H-pyrazol-3-yl)-4-(trifluoromethyl)benzamide]",7
12,"Cn1ccc(-c2cc(C(=O)Nc3cc(C(N)=O)cnc3-c3ccccc3)ccc2C(F)(F)F)n1 [Example 89, 5-(3-(1-methyl-1H-pyrazol-3-yl)-4-(trifluoromethyl)benzamido)-6-phenylnicotinamide]",1.5
13,"Cn1ccc(-c2cc(C(=O)Nc3cnc(CCN4CCOCC4)nc3-c3ccccc3)ccc2C(F)(F)F)n1 [Example 38, 3-(1-methyl-1H-pyrazol-3-yl)-N-(2-(2-morpholinoethyl)-4-phenylpyrimidin-5-yl)-4-(trifluoromethyl)benzamide]",25
14,"Cn1ccc(-c2cc(C(=O)Nc3cnc(CNC(=O)CN4CCOC4=O)nc3-c3ccccc3)c(F)cc2C(F)(F)F)n1 [Example 70, 2-fluoro-5-(1-methyl-1H-pyrazol-3-yl)-N-(2-((2-(2-oxooxazolidin-3-yl)acetamido)methyl)-4-phenylpyrimidin-5-yl)-4-(trifluoromethyl)benzamide]",0.53
15,"NC(=O)c1cnc(-c2ccccc2)c(NC(=O)c2cc(-c3cc[nH]n3)c(C(F)(F)F)cc2F)c1 [Example 93, 5-(2-fluoro-5-(1H-pyrazol-3-yl)-4-(trifluoromethyl)benzamido)-6-phenylnicotinamide]",5.7
16,"C[C@@H](O)C(=O)N1CCc2nc(-c3ccccc3)c(NC(=O)c3ccc(C(F)(F)F)c(-c4ccn(C)n4)c3)cc2C1 [Example 163, (R)-N-(6-(2-hydroxypropanoyl)-2-phenyl-5,6,7,8-tetrahydro-1,6-naphthyridin-3-yl)-3-(1-methyl-1H-pyrazol-3-yl)-4-(trifluoromethyl)benzamide]",1.3
